For data set [1], the system named is U2932. The experiment in a line: Antiproliferative activity against human U2932 cells assessed as inhibition of cell viability measured after 72 hrs by MTT assay. The format is functional, cell-based. To be noted: U2932, 72 h.
Data set [2] deals with DOHH-2. The data set is described as follows: Antiproliferative activity against human DOHH-2 cells assessed as inhibition of cell viability measured after 72 hrs by MTT assay. To be noted: DOHH-2, 72 h. The format is functional, cell-based.
Data set [3] relates to Jurkat. The data set is described as follows: Antiproliferative activity against human Jurkat cells assessed as inhibition of cell viability measured after 72 hrs by MTT assay. It is filed as functional, cell-based.
Data set [4] in a line: Antiproliferative activity against human NK-YS cells assessed as inhibition of cell viability measured after 72 hrs by MTT assay. The format is functional, cell-based.
In data set [5] the test system is TMD8. The experiment in a line: Antiproliferative activity against human TMD8 cells assessed as inhibition of cell viability measured after 72 hrs by MTT assay. To be noted: TMD8, 72 h. The format is functional, cell-based.
The nature of data set [6]: Upregulation of FAS mRNA level in human DOHH-2 cells assessed as fold change at 300 nM measured after 6 days by PCR analysis. The format is functional. To be noted: time 6 day.
Data set [7] is described as follows: Upregulation of BAX mRNA level in human DOHH-2 cells assessed as fold change at 300 nM measured after 6 days by PCR analysis. The format is functional. To be noted: time 6 day.
Data set [8] has as its system TMD8. The experiment in a line: Antitumor activity against human TMD8 cells xenografted in mouse model assessed as tumor inhibition rate at 2.5 mg/kg, ip QD relative to control. It is filed as functional. Also noted: scale not given: the % may be the effect or the level left.
Data set [9] in a line: Antitumor activity against human TMD8 cells harbouring […] xenografted in mouse model assessed as tumor inhibition rate at 2.5 mg/kg, ip QD relative to control. It is filed as functional. On the set-up: scale not given: the % may be the effect or the level left.
Data set [10] in a line: Antitumor activity against human TMD8 cells harbouring TP53 mutant xenografted in mouse model assessed as tumor inhibition rate at 2.5 mg/kg, ip QD relative to control. The format is functional. On the set-up: scale not given: the % may be the effect or the level left.
A short description of data set [11]: Antitumor activity against human TMD8 cells harbouring […] xenografted in mouse model assessed as body weight change at 2.5 mg/kg, ip QD relative to control. It is filed as functional.
A short description of data set [12]: Antitumor activity against human TMD8 cells harbouring TP53 mutant xenografted in mouse model assessed as body weight change at 2.5 mg/kg, ip QD relative to control. It is filed as functional.
The nature of data set [13]: Antitumor activity against human TMD8 cells harbouring […] xenografted in mouse model assessed as tumor inhibition rate at 12.5 mg/kg, po QD relative to control. It is filed as functional. Also noted: scale not given: the % may be the effect or the level left.
Data set [14] is described as follows: Antitumor activity against human TMD8 cells harbouring TP53 mutant xenografted in mouse model assessed as tumor inhibition rate at 12.5 mg/kg, po QD relative to control. It is filed as functional. Also noted: scale not given: the % may be the effect or the level left.
Data set [15] can be described thus: Antitumor activity against human TMD8 cells harbouring […] xenografted in mouse model assessed as body weight change at 12.5 mg/kg, po QD relative to control. The format is functional.
Data set [16] is described as follows: Antitumor activity against human TMD8 cells harbouring TP53 mutant xenografted in mouse model assessed as body weight change at 12.5 mg/kg, po QD relative to control. It is filed as functional.
The target in data set [17] is T1, DNA (cytosine-5)-methyltransferase 1 (Homo sapiens, UniProt P26358). The experiment in a line: Inhibition of DNMT1 (unknown origin) preincubated for 15 mins followed by substrate and [3H-SAM] addition and measured after 60 mins by microbeta analysis.
T1 sequence (P26358 whole entry): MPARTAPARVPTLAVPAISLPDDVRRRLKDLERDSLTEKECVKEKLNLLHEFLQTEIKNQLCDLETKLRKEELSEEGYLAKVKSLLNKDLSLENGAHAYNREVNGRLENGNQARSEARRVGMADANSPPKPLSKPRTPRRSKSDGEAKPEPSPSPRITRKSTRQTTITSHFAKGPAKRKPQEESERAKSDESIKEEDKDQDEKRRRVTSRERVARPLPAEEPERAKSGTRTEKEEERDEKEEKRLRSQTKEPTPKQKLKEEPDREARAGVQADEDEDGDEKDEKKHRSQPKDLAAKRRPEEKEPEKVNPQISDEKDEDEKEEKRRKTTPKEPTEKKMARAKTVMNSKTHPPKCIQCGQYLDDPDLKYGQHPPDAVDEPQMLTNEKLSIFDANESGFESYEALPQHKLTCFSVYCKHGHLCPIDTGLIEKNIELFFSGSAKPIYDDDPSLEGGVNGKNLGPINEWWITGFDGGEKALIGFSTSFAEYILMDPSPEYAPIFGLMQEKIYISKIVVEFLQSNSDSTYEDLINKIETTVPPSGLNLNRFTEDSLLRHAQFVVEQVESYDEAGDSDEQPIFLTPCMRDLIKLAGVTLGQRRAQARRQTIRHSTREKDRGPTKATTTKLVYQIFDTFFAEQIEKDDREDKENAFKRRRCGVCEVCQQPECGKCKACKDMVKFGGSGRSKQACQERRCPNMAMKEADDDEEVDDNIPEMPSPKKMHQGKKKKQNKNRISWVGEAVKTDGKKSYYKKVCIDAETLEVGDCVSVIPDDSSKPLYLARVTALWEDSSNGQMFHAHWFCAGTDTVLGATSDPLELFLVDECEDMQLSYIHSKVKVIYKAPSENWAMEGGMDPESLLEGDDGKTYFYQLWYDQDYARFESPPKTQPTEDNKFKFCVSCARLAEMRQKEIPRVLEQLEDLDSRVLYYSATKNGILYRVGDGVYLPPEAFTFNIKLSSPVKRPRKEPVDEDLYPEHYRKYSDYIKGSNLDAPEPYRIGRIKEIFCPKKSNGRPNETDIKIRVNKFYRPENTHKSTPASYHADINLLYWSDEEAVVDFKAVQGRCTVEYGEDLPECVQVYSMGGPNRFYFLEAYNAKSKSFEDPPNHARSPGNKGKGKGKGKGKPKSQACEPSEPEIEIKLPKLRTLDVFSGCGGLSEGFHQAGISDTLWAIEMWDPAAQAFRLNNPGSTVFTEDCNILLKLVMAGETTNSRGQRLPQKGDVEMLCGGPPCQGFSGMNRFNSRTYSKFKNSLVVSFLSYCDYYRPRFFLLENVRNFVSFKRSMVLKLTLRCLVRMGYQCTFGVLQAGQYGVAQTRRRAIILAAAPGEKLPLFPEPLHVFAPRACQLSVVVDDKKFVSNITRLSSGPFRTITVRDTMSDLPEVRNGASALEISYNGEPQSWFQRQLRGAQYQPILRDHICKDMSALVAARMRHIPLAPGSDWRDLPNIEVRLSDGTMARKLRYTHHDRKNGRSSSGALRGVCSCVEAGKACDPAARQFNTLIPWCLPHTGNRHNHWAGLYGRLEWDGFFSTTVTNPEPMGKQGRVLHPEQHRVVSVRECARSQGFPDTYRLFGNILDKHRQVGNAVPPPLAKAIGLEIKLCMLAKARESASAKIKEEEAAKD
The target of data set [18] is T1, DNA (cytosine-5)-methyltransferase 1. The experiment in a line: Inhibition of DNMT1 (unknown origin) at 5 uM preincubated for 15 mins followed by substrate and [3H-SAM] addition and measured after 60 mins by microbeta analysis relative to control. To be noted: time 75.0 min.
The target of data set [19] is T2, DNA (cytosine-5)-methyltransferase 3A (Homo sapiens, UniProt Q9Y6K1). The data set is described as follows: Inhibition of DNMT3A (unknown origin) at 5 uM preincubated for 15 mins followed by substrate and [3H-SAM] addition and measured after 60 mins by microbeta analysis relative to control. To be noted: time 75.0 min.
T2 sequence (Q9Y6K1 whole entry, looked up): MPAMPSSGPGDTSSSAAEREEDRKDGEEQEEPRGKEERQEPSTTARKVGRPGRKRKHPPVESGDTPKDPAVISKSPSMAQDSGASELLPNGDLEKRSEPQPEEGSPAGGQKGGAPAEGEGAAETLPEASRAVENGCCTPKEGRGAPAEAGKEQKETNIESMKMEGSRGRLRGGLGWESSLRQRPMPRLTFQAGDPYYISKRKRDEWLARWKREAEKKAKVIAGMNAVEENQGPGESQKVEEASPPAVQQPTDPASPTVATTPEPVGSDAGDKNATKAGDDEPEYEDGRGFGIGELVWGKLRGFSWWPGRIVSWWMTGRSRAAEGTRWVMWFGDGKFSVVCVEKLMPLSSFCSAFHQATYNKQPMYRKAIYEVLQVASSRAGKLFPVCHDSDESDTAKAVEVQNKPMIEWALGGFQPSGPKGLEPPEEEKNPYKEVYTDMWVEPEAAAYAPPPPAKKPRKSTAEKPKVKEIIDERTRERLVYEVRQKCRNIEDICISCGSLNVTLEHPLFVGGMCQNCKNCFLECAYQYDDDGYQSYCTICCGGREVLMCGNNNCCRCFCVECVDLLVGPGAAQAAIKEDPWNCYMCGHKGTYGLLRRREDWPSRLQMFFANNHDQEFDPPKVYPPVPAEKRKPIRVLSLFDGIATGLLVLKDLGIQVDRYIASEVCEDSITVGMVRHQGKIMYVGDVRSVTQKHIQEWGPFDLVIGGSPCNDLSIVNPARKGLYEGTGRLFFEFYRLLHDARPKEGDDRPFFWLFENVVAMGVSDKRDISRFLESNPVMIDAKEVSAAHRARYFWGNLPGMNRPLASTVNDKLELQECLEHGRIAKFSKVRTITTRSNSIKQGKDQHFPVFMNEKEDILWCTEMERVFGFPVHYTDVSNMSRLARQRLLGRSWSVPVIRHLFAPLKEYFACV
For data set [20], the target named is T3, DNA (cytosine-5)-methyltransferase 3B (Homo sapiens, UniProt Q9UBC3). The data set is described as follows: Inhibition of DNMT3B (unknown origin) at 5 uM preincubated for 15 mins followed by substrate and [3H-SAM] addition and measured after 60 mins by microbeta analysis relative to control. To be noted: time 75.0 min.
Data set [21] deals with T4, Histone-lysine N-methyltransferase EHMT2 (Homo sapiens) (UniProt Q96KQ7).
T4 sequence (whole entry): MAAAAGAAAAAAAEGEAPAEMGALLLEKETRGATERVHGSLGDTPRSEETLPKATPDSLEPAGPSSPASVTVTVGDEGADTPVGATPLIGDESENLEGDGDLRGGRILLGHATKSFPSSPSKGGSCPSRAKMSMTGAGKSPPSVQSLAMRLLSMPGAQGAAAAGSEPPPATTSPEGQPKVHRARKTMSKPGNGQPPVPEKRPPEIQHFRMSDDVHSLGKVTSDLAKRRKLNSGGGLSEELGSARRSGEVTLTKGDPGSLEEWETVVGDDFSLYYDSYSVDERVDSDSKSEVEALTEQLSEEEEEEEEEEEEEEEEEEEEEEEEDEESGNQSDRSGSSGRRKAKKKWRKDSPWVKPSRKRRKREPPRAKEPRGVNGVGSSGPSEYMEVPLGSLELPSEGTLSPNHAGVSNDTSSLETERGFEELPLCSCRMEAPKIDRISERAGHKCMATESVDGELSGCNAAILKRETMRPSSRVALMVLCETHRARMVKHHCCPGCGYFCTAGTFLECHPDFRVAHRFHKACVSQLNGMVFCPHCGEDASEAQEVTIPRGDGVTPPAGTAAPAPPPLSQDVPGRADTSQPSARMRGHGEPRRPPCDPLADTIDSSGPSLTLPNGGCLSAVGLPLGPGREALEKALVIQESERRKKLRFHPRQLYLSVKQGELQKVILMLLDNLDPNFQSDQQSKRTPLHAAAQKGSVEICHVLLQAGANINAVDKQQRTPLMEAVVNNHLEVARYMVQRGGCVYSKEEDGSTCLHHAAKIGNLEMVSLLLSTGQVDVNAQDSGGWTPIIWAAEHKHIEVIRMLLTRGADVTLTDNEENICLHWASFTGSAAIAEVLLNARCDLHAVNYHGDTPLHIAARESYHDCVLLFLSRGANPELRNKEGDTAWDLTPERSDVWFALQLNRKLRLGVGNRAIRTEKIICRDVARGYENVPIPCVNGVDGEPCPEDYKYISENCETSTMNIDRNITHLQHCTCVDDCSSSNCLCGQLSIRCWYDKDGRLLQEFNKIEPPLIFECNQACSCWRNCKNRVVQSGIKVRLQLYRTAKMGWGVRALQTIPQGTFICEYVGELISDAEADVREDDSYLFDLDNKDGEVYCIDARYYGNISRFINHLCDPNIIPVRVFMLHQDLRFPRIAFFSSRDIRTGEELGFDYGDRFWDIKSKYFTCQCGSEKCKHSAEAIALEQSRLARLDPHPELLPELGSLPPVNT
The experiment in a line: Inhibition of G9a (unknown origin) at 5 uM preincubated for 15 mins followed by substrate and [3H-SAM] addition and measured after 60 mins by microbeta analysis relative to control. To be noted: time 75.0 min.

Data set [22] has as its system MV4-11. The data set is described as follows: Antiproliferative activity against human MV4-11 cells assessed as inhibition of cell viability measured after 72 hrs by MTT assay. It is filed as functional, cell-based. To be noted: MV4-11, 72 h.
Data set [23] has as its system U-937. The data set is described as follows: Antiproliferative activity against human U-937 cells assessed as inhibition of cell viability measured after 72 hrs by MTT assay. The format is functional, cell-based. To be noted: U-937, 72 h.
The target of data set [24] is T2, DNA (cytosine-5)-methyltransferase 3A. The experiment in a line: Inhibition of DNMT3A (unknown origin) preincubated for 15 mins followed by substrate and [3H-SAM] addition and measured after 60 mins by microbeta analysis.
In data set [25] the target is T3, DNA (cytosine-5)-methyltransferase 3B. The data set is described as follows: Inhibition of DNMT3B (unknown origin) preincubated for 15 mins followed by substrate and [3H-SAM] addition and measured after 60 mins by microbeta analysis.
The target of data set [26] is T5, Histone-lysine N-methyltransferase EHMT2 (Homo sapiens, UniProt Q96KQ7).
T5 sequence (Q96KQ7 whole entry): T4 sequence (whole entry)
The experiment in a line: Inhibition of G9a (unknown origin) preincubated for 15 mins followed by substrate and [3H-SAM] addition and measured after 60 mins by microbeta analysis.

Data set [27] is described as follows: Cmax in Sprague-Dawley rat at 10 mg/kg, po measured upto 24 hrs by LC/MS/MS analysis. To be noted: in vivo. The format is ADME, organism-based.
Data set [28] in a line: Volume of distribution at steady state in Sprague-Dawley rat at 10 mg/kg, po measured upto 24 hrs by LC/MS/MS analysis. To be noted: in vivo. It is filed as ADME, organism-based.
Data set [29] in a line: Terminal elimination half life in Sprague-Dawley rat at 10 mg/kg, po measured upto 24 hrs by LC/MS/MS analysis. It is filed as ADME, organism-based. To be noted: in vivo, read-out: beta t1/2 (converted).
The nature of data set [30]: Apparent clearance during terminal phase in Sprague-Dawley rat at 10 mg/kg, po measured upto 24 hrs by LC/MS/MS analysis. The format is ADME, organism-based. To be noted: in vivo, read-out: CLz/F (converted).
The nature of data set [31]: AUC (0 to t) in Sprague-Dawley rat at 10 mg/kg, po measured upto 24 hrs by LC/MS/MS analysis. The format is ADME, organism-based. To be noted: in vivo, po, 10 mg/kg, 24 h.
Data set [32] in a line: Oral bioavailability in Sprague-Dawley rat at 10 mg/kg measured upto 24 hrs by LC/MS/MS analysis. The format is ADME, organism-based. To be noted: in vivo, po, 10 mg/kg, 24 h.
Data set [33] in a line: Cmax in Sprague-Dawley rat at 10 mg/kg, iv measured upto 24 hrs by LC/MS/MS analysis. It is filed as ADME, organism-based. To be noted: in vivo.
The nature of data set [34]: Volume of distribution at steady state in Sprague-Dawley rat at 10 mg/kg, iv measured upto 24 hrs by LC/MS/MS analysis. It is filed as ADME, organism-based. To be noted: in vivo, read-out: Vdss.
Data set [35] can be described thus: Terminal elimination half life in Sprague-Dawley rat at 10 mg/kg, iv measured upto 24 hrs by LC/MS/MS analysis. The format is ADME, organism-based. To be noted: in vivo, read-out: beta t1/2 (converted).
Data set [36] in a line: Clearance in Sprague-Dawley rat at 10 mg/kg, iv measured upto 24 hrs by LC/MS/MS analysis. It is filed as ADME, organism-based. To be noted: in vivo.
A short description of data set [37]: AUC (0 to t) in Sprague-Dawley rat at 10 mg/kg, iv measured upto 24 hrs by LC/MS/MS analysis. The format is ADME, organism-based. To be noted: in vivo, iv, 10 mg/kg, 24 h.

SMILES strings stand for the structures. pIC50: −log10 of the molar value. Bounds are passed on as bounds.

These results are taken from ChEMBL document CHEMBL6153174, “Design and Synthesis of Novel Deazapurine DNMT 1 Inhibitors with In Vivo Efficacy in DLBCL” (J Med Chem, 2025).

`Nc1ncn([C@@H]2O[C@H](CO)[C@@H](O)[C@H]2O)c(=O)n1` [AZACITIDINE]: the pIC50 was 5.74 in data set [1]; 6.47 in data set [2]; 5.97 in [3]; 5.48 in [4]; 5.55 in [5]. Moreover, the “fold change (FC)” value came to 1.8 in data set [6] and 1.86 in data set [7]. For the same molecule, the Activity in data set [8] is 53.02%; in [9], 52.1%; in data set [10], 43.6%; in data set [11] it was -5.9%; in data set [12], -5.9%.
Regarding `Nc1cc(F)ccc1NC(=O)c1ccc(CNC(=O)/C=C/c2cccnc2)cc1` [TUCIDINOSTAT], the Activity in data set [13] was 51.5%; in [14], 61%; in [15], 2.5%; in [16], -2.3%.
As for `CN1CCC(Nc2nc(-c3ccc(C#N)c(F)c3)nc3c2ccn3CCCN2CCCC2)CC1`, the pIC50 is 5.91 in data set [17]; 5.69 in data set [22]; 5.92 in data set [23]; 4.96 in [24]; 4.91 in [25]; below 4.70 in [26]. Besides, the inhibition is 82% in data set [18], 11% in data set [19], 2.3% in [20] and -1.3% in [21]. Moreover, the results for the Cmax in data set [27] and in [33] were 29.3 ng/mL and 698 ng/mL, respectively. Also, the Vdss in [28] stood at 673.5 L/kg. Also, the half-life in [29] was 12.3 h; in data set [35] it was 12.1 h. The CL/F in [30] was 843 mL/min/kg. The values for the AUCt in data set [31] and in data set [37] were 302.6 ng·h/mL and 2775.5 ng·h/mL, respectively. For the same molecule, in data set [32], the F was determined as 5.4%. Besides, the Vd in data set [34] is 22.4 L/kg. Also, in [36], the clearance was 21.7 mL/min/kg.
